We go through 36 compounds from patent US20120122870A1, “Treatment Of Ischemia-Reperfusion Injury” (MUSC FOUNDATION FOR RESEARCH DEVELOPMENT, priority 2009, published 2012).

The first test deals with T1, recombinant human SK (Homo sapiens, UniProt Q9NYA1).
T1 construct: GST (glutathione-S-transferase) (N); made in house; host or cells: bacteria (pGEX bacterial expression vector)
T1 sequence (Q9NYA1 whole entry): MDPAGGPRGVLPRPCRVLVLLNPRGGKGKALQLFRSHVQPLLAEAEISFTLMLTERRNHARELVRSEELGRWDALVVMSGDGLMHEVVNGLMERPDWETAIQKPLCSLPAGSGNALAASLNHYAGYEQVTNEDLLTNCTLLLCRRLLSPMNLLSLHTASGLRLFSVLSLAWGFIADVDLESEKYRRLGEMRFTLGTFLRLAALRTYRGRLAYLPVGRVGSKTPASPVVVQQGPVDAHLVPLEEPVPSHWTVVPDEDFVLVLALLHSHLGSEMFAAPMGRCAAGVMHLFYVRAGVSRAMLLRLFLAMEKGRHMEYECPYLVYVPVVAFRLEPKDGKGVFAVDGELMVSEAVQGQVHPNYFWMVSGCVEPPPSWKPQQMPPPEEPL
Nature of the test: Recombinant human SK activity assay ([3H]sphingosine to [3H]S1P). The class given is biochemical. The conditions noted are these: Human SK incubated with 6 μg/mL of compound; percentage of SK activity inhibited. Here is the method:
SK activity is measured by incubation of the recombinant SK with [^3H]sphingosine and 1 mM ATP under defined conditions, followed by extraction of the assay mixture with chloroform:methanol under basic conditions. […] Radioactivity in aliquots of the aqueous phase is then quantified as a measure of [^3H]S1P formation.
(§1) Human SK was incubated with 6 μg/mL of the indicated compounds, and then assayed for activity as described above. Values in the column labeled “Recombinant SK (% inhibition)” represent the percentage of SK activity that was inhibited. MDA-MB-231 cells were incubated with 20 μg/mL of the indicated compounds and then assayed for endogenous SK activity as indicated above. Values in the column labeled “Cellular S1P (% inhibition)” represent the percentage of S1P production that was inhibited. Additionally, MDA-MB-231 cells were treated with varying concentration of certain compounds and the amount of S1P produced by the cells was determined. Values in the column labeled “Cellular S1P IC50 (μM)” represent the concentration of compound required to inhibit the production of S1P by 50%. ND=not determined.
With “4-(4-Chloro-phenyl)-thiazole-2-carboxylic acid 4-phenoxy benzylamide [B54]”, the “Recombinant SK (% inhibition)” value was 25%.

Broadly, the inhibition is the drop in the measured response relative to a control, in per cent. `O=C(NC1CC1)C12CC3CC(C1)CC(c1ccc(Cl)cc1)(C3)C2` [A2, 3-(4-Chloro-phenyl)-adamantane-1-carboxylic acid cyclopropylamide]: the inhibition at 6 µg/mL was 0%.

Take `CCSCCNC(=O)C12CC3CC(C1)CC(c1ccc(Cl)cc1)(C3)C2` [A3, 3-(4-Chloro-phenyl)-adamantane-1-carboxylic acid (2-ethylsulfanyl-ethyl)-amide]: the inhibition at 6 µg/mL was 6%.

Turning to `CSc1ccc(CNC(=O)C23CC4CC(C2)CC(c2ccc(Cl)cc2)(C4)C3)cc1` [A14, 3-(4-Chloro-phenyl)-adamantane-1-carboxylic acid 4-methylsulfanyl-benzylamide], the inhibition at 6 µg/mL turned out to be 19%.

In the case of `O=C(NCc1ccc(C(F)(F)F)cc1)C12CC3CC(C1)CC(c1ccc(Cl)cc1)(C3)C2` [A16, 3-(4-Chloro-phenyl)-adamantane-1-carboxylic acid 4-trifluoromethyl-benzylamide], the inhibition at 6 µg/mL is 8%.

For the compound `O=C(NCc1cc(C(F)(F)F)cc(C(F)(F)F)c1)C12CC3CC(C1)CC(c1ccc(Cl)cc1)(C3)C2` [A17, 3-(4-Chloro-phenyl)-adamantane-1-carboxylic acid 3,5-bis-trifluoromethyl-benzylamide], the inhibition at 6 µg/mL was determined as 56%.

In the case of `O=C(NCc1cc(F)cc(C(F)(F)F)c1)C12CC3CC(C1)CC(c1ccc(Cl)cc1)(C3)C2` [A18, 3-(4-Chloro-phenyl)-adamantane-1-carboxylic acid 3-fluoro-5-trifluoromethyl-benzylamide], the inhibition at 6 µg/mL worked out at 0%.

With `O=C(NCc1cc(F)cc(F)c1)C12CC3CC(C1)CC(c1ccc(Cl)cc1)(C3)C2` [A20, 3-(4-Chloro-phenyl)-adamantane-1-carboxylic acid 3,5-difluoro-benzylamide], the inhibition at 6 µg/mL was found to be 0%.

As to `O=C(NCc1ccc(F)c(F)c1)C12CC3CC(C1)CC(c1ccc(Cl)cc1)(C3)C2` [A21, 3-(4-Chloro-phenyl)-adamantane-1-carboxylic acid 3,4-difluoro-benzylamide], the inhibition at 6 µg/mL was 65%.

With `O=C(NCc1cc(F)c(F)c(F)c1)C12CC3CC(C1)CC(c1ccc(Cl)cc1)(C3)C2` [A22, 3-(4-Chloro-phenyl)-adamantane-1-carboxylic acid 3,4,5-trifluoro-benzylamide], the inhibition at 6 µg/mL worked out at 56%.

For `O=C(NCc1ccc(F)c(Cl)c1)C12CC3CC(C1)CC(c1ccc(Cl)cc1)(C3)C2` [A23, 3-(4-Chloro-phenyl)-adamantane-1-carboxylic acid 3-chloro-4-fluoro-benzylamide], the inhibition at 6 µg/mL was found to be 0%.

Consider `O=C(NCc1ccc(F)c(C(F)(F)F)c1)C12CC3CC(C1)CC(c1ccc(Cl)cc1)(C3)C2` [A24, 3-(4-Chloro-phenyl)-adamantane-1-carboxylic acid 4-fluoro-3-trifluoromethyl-benzylamide], for which the inhibition at 6 µg/mL is 20%.

With `O=C(NCc1ccc(F)cc1Cl)C12CC3CC(C1)CC(c1ccc(Cl)cc1)(C3)C2` [A25, 3-(4-Chloro-phenyl)-adamantane-1-carboxylic acid 2-chloro-4-fluoro-benzylamide], the inhibition at 6 µg/mL amounted to 47%.

As to `O=C(NCc1ccc(Cl)c(C(F)(F)F)c1)C12CC3CC(C1)CC(c1ccc(Cl)cc1)(C3)C2` [A26, 3-(4-Chloro-phenyl)-adamantane-1-carboxylic acid 4-chloro-3-trifluoromethyl-benzylamide], the inhibition at 6 µg/mL worked out at 36%.

On to `NCc1c(Cl)c(Cl)c(Cl)c(CNC(=O)C23CC4CC(C2)CC(c2ccc(Cl)cc2)(C4)C3)c1Cl` [A27, 3-(4-Chloro-phenyl)-adamantane-1-carboxylic acid 3-aminomethyl-2,4,5,6-tetrachloro-benzylamide], for which the inhibition at 6 µg/mL came out at 50%.

Regarding `CC(NC(=O)C12CC3CC(C1)CC(c1ccc(Cl)cc1)(C3)C2)c1ccc(Cl)cc1` (stereo not drawn) [A28, 3-(4-Chloro-phenyl)-adamantane-1-carboxylic acid [1-(4-chloro-phenyl)-ethyl]-amide], the inhibition at 6 µg/mL is 6%.

For the compound `CS(=O)(=O)c1ccc(CNC(=O)C23CC4CC(C2)CC(c2ccc(Cl)cc2)(C4)C3)cc1` [A30, 3-(4-Chloro-phenyl)-adamantane-1-carboxylic acid 4-methanesulfonyl-benzylamide], the inhibition at 6 µg/mL was determined as 1%.

In the case of `CN(C)c1ccc(CNC(=O)C23CC4CC(C2)CC(c2ccc(Cl)cc2)(C4)C3)cc1` [A31, 3-(4-Chloro-phenyl)-adamantane-1-carboxylic acid 4-dimethylamino-benzylamide], the inhibition at 6 µg/mL is 74%.

For the compound `O=C(NCc1ccc(OC(F)(F)F)cc1)C12CC3CC(C1)CC(c1ccc(Cl)cc1)(C3)C2` [A32, 3-(4-Chloro-phenyl)-adamantane-1-carboxylic acid 4-trifluoromethoxy-benzylamide], the inhibition at 6 µg/mL is 17%.

Regarding `O=C(NCc1cccc(OC(F)(F)F)c1)C12CC3CC(C1)CC(c1ccc(Cl)cc1)(C3)C2` [A33, 3-(4-Chloro-phenyl)-adamantane-1-carboxylic acid 3-trifluoromethoxy-benzylamide], the inhibition at 6 µg/mL worked out at 10%.

As to `O=C(NCc1ccc(Oc2ccccc2)cc1)C12CC3CC(C1)CC(c1ccc(Cl)cc1)(C3)C2` [A34, 3-(4-Chloro-phenyl)-adamantane-1-carboxylic acid 4-phenoxy-benzylamide], the “Recombinant SK (% inhibition)” value is listed as 0%.

With `O=C(NCc1ccc(O)c(O)c1)C12CC3CC(C1)CC(c1ccc(Cl)cc1)(C3)C2` [A36, 3-(4-Chloro-phenyl)-adamantane-1-carboxylic acid 3,4-dihydroxy-benzylamide], the inhibition at 6 µg/mL was found to be 37%.

In the case of `COc1ccc(CCNC(=O)C23CC4CC(C2)CC(c2ccc(Cl)cc2)(C4)C3)cc1Br` [A42, 3-(4-Chloro-phenyl)-adamantane-1-carboxylic acid [2-(3-bromo-4-methoxy-phenyl)-ethyl]-amide], the inhibition at 6 µg/mL is 5%.

As to `O=C(NCCc1ccc2c(c1)OCO2)C12CC3CC(C1)CC(c1ccc(Cl)cc1)(C3)C2` [A45, 3-(4-Chloro-phenyl)-adamantane-1-carboxylic acid (2-benzo[1,3]dioxol-5-yl-ethyl)-amide], the inhibition at 6 µg/mL worked out at 64%.

Regarding `O=C(NCCc1cccc(Oc2ccccc2)c1)C12CC3CC(C1)CC(c1ccc(Cl)cc1)(C3)C2` [A46, 3-(4-Chloro-phenyl)-adamantane-1-carboxylic acid [2-(3-phenoxy-phenyl)-ethyl]-amide], the inhibition at 6 µg/mL came out at 4%.

`O=C(NCCc1ccc(Oc2ccccc2)cc1)C12CC3CC(C1)CC(c1ccc(Cl)cc1)(C3)C2` [A47, 3-(4-Chloro-phenyl)-adamantane-1-carboxylic acid [2-(4-phenoxy-phenyl)-ethyl]-amide]: the inhibition at 6 µg/mL was determined as 26%.

In the case of `O=C(NCc1ccc(-c2ccccc2)cc1)C12CC3CC(C1)CC(c1ccc(Cl)cc1)(C3)C2` [A49, 3-(4-Chloro-phenyl)-adamantane-1-carboxylic acid (biphenyl-4-ylmethyl)-amide], the inhibition at 6 µg/mL was 33%.

On to `CC(C)(C)NCCCNC(=O)C12CC3CC(C1)CC(c1ccc(Cl)cc1)(C3)C2` [A53, 3-(4-Chloro-phenyl)-adamantane-1-carboxylic acid (3-tert-butylamino-propyl)-amide], for which the inhibition at 6 µg/mL was 52%.

`O=C(NCCCN1CCCC1)C12CC3CC(C1)CC(c1ccc(Cl)cc1)(C3)C2` [A54, 3-(4-Chloro-phenyl)-adamantane-1-carboxylic acid (3-pyrrolidin-1-yl-propyl)-amide]: the inhibition at 6 µg/mL turned out to be 95%.

On to `O=C1CCCN1CCCNC(=O)C12CC3CC(C1)CC(c1ccc(Cl)cc1)(C3)C2` [A55, 3-(4-Chloro-phenyl)-adamantane-1-carboxylic acid [3-(2-oxo-pyrrolidin-1-yl)-propyl]-amide], for which the inhibition at 6 µg/mL stood at 8%.

Take `O=C(NCCN1CCNCC1)C12CC3CC(C1)CC(c1ccc(Cl)cc1)(C3)C2` [A59, 3-(4-Chloro-phenyl)-adamantane-1-carboxylic acid (2-piperazin-1-yl-ethyl)-amide]: the inhibition at 6 µg/mL is 0%.

Regarding `O=C(NCCCn1ccnc1)C12CC3CC(C1)CC(c1ccc(Cl)cc1)(C3)C2` [A65, 3-(4-Chloro-phenyl)-adamantane-1-carboxylic acid (3-imidazol-1-yl-propyl)-amide], the inhibition at 6 µg/mL was found to be 3%.

In a further test the test system is endogenous SK activity in MDA-MB-231 cells. Description: Cellular S1P production (endogenous SK activity) in MDA-MB-231 cells. Format: cell-based. The conditions noted are these: Homo sapiens, MDA-MB-231, MDA-MB-231 cells incubated with 20 μg/mL of compound; percentage of S1P production inhibited. As to the method:
as §1
`O=C(Nc1ccc(Cl)c(C(F)(F)F)c1)Nc1nc2cc(Cl)ccc2o1` [B93, 1-(5-Chloro-benzooxazol-2-yl)-3-(4-chloro-3-trifluoromethyl-phenyl)-urea] registered an inhibition at 20 µg/mL of 53%.

`O=C(Nc1ccc(Cl)c(C(F)(F)F)c1)Nc1nc2ccccc2s1` [B94, 1-Benzothiazol-2-yl-3-(4-chloro-3-trifluoromethyl-phenyl)-urea] showed an inhibition at 20 µg/mL of 13%.

`O=C(Nc1nc2cc(Cl)ccc2s1)c1ccccc1O` [B96, N-(5-Chloro-benzothiazol-2-yl)-2-hydroxy-benzamide] displayed an inhibition at 20 µg/mL of 18%.

`O=C(Nc1nc2cc(Cl)ccc2o1)c1cccc(F)c1` [B97, N-(5-Chloro-benzooxazol-2-yl)-3-fluoro-benzamide]: testing at 20 µg/mL gave an inhibition of 38%.
